From BigSolDB 2.1

N[C@@H](C(=O)N[C@@H]1C(=O)N2C(C(=O)O)=C(Cl)CS[C@H]12)c1ccccc1.O
solubility (mole fraction)
Details | 278.15 K | 283.15 K | 288.15 K | 293.15 K | 298.15 K | 303.15 K | 308.15 K | 313.15 K
in acetone | 2.05e-05 | 2.67e-05 | 3.43e-05 | 4.35e-05 | 5.48e-05 | 6.84e-05 | 8.57e-05 | 0.000108
in ethanol | 2.36e-05 | 3.05e-05 | 3.86e-05 | 4.76e-05 | 5.71e-05 | 6.72e-05 | 7.92e-05 | 9.55e-05
in methanol | 8.68e-05 | 0.000101 | 0.000115 | 0.000129 | 0.000145 | 0.000163 | 0.000186 | 0.000214
in water | 0.000387 | 0.000401 | 0.000417 | 0.000445 | 0.000476 | 0.000511 | 0.000551 | 0.000602
